Measured values taken from patent publication US9186318B2, “Quinolyl-containing hydroxamic acid compound and preparation method thereof, and pharmaceutical composition containing this compound and use thereof” (Beijing Konruns Pharmaceutical Co., Ltd, priority 2011, dated 2015).

Columns and labels:
Experiment in all cases: KinomeScan 96-kinase panel
Type in all cases: binding
Conditions in all cases: compound concentration 1000 nM
MEK2 = MEK2 (Homo sapiens (Human), UniProt P36507)
Excerpt: (§1) The details of the screening technology were described in Fabian, M. A. et al, Nat., Biotechnol. 2005, 23, 329 and Karaman, M. W. et al, Nat., Biotechnol. 2008, 26, 127. From the above representative results, it can be seen that the compounds of the present invention have potent inhibitory activities on kinases including ALK, AXL, VEGFR2, PDGFR-α, PDGFR-β, c-KIT, Flt3, MEK1, MEK2, CSF1R, EPHA2, EPHA2, MKNK2, SRC, TIE2 and their mutants. Accordingly, the compounds of the present invention can be used for the treatment of diseases caused by abnormal activities of these kinases, e.g., cancer, psoriasis, hepatic cirrhosis, diabetes, diseases involving angiogenesis, eye diseases, immune system diseases, cardiovascular diseases, and so forth.

MARK3 = MARK3 (Homo sapiens (Human), UniProt P27448)
Excerpt: as §1

PIK3CG = PIK3CG (Homo sapiens (Human), UniProt P48736)
Excerpt: as §1

PAK1 = PAK1 (Homo sapiens (Human), UniProt Q13153)
PAK1, sequence (Q13153 whole entry): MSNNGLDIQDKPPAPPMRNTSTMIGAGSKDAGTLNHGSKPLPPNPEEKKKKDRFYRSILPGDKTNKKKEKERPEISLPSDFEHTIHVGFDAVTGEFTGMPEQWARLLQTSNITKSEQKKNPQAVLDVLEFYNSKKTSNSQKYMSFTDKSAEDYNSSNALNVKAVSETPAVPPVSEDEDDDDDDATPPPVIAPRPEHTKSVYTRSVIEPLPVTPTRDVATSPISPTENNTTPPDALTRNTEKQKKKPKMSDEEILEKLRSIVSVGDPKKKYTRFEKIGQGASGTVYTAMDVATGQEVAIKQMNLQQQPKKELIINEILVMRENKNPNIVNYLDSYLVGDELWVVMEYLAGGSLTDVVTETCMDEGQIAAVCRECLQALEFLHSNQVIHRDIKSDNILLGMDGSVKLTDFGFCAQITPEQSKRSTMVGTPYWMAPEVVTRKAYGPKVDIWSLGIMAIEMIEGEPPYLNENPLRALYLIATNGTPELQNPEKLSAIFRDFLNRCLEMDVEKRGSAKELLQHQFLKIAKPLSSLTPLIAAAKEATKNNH
Excerpt: as §1

PAK2 = PAK2 (Homo sapiens (Human), UniProt Q13177)
Excerpt: as §1

AKT2 = AKT2 (Homo sapiens (Human), UniProt P31751)
AKT2, sequence (P31751 whole entry): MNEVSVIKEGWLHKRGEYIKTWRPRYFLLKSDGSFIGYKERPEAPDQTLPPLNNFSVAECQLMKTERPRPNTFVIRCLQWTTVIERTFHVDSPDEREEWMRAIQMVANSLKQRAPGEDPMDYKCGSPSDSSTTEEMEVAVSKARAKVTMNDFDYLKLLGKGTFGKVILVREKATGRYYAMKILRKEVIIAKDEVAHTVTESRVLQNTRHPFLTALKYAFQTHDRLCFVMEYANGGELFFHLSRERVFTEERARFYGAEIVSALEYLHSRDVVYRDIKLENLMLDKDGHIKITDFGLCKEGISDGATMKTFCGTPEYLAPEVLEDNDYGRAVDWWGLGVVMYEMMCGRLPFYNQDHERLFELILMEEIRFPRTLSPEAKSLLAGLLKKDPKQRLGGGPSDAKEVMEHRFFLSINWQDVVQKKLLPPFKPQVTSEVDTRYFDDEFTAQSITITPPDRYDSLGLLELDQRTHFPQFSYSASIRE
Excerpt: as §1

ERBB2 = ERBB2 (Homo sapiens (Human), UniProt P04626)
Excerpt: as §1

DYRK1B = DYRK1B (Homo sapiens (Human), UniProt Q9Y463)
Excerpt: as §1

TIE2 = TIE2 (Homo sapiens (Human), UniProt Q02763)
Excerpt: as §1

SRPK3 = SRPK3 (Homo sapiens (Human), UniProt Q9UPE1)
Excerpt: as §1

PCTK1 = PCTK1 (Homo sapiens (Human), UniProt Q00536)
Excerpt: as §1

RET = RET (Homo sapiens (Human), UniProt P07949)
RET, sequence (P07949 29-1114): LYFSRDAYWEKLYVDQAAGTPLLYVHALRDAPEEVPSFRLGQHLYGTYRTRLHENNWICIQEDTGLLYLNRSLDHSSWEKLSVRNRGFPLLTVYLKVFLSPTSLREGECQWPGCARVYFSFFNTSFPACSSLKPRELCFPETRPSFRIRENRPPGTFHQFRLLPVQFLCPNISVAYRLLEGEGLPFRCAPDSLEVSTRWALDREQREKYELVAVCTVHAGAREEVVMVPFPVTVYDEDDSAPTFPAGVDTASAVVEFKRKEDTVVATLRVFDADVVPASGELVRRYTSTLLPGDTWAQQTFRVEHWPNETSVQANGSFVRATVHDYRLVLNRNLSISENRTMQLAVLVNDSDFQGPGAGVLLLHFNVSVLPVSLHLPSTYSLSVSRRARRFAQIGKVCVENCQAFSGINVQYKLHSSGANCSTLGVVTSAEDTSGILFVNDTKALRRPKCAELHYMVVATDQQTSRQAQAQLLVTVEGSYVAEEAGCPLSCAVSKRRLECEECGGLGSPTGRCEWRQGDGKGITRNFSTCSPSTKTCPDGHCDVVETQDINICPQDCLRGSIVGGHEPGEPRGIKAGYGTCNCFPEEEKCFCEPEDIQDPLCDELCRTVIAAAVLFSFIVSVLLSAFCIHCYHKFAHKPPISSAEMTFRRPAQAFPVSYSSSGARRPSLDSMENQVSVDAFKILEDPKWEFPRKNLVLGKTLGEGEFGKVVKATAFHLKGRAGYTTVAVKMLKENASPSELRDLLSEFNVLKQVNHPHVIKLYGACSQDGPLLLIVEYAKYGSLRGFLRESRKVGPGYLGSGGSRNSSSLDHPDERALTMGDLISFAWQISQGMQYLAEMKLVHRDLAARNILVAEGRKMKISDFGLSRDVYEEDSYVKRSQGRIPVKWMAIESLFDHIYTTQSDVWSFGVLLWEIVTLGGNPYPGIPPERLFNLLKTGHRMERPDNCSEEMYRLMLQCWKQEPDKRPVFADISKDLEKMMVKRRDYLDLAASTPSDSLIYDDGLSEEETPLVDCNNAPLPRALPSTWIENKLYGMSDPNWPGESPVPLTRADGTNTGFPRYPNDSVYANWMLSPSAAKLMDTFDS
Excerpt: as §1

SRC = SRC (Homo sapiens (Human), UniProt P12931)
Excerpt: as §1

MEK1 = MEK1 (Homo sapiens (Human), UniProt Q02750)
MEK1, sequence (Q02750 whole entry): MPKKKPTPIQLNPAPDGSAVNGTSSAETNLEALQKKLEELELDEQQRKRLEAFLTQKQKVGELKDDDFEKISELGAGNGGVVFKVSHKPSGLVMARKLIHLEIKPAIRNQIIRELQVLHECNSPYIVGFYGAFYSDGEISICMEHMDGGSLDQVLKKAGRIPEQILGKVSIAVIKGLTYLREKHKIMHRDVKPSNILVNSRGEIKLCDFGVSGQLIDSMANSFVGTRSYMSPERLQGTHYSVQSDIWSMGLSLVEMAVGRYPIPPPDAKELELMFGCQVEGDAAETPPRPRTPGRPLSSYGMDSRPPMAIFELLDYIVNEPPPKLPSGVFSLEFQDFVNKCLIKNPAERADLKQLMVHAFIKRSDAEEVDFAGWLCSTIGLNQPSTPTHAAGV
Excerpt: as §1

BRAF(V600E) = BRAF(V600E) (Homo sapiens (Human), UniProt P15056, V600E)
Excerpt: as §1

CDK11 = CDK11 (Homo sapiens (Human), UniProt Q9BWU1)
Excerpt: as §1

ERK1 = ERK1 (Homo sapiens (Human), UniProt P27361)
Excerpt: as §1

CSF1R = CSF1R (Homo sapiens (Human), UniProt P07333)
Excerpt: as §1

PLK4 = PLK4 (Homo sapiens (Human), UniProt O00444)
PLK4, sequence (O00444 whole entry): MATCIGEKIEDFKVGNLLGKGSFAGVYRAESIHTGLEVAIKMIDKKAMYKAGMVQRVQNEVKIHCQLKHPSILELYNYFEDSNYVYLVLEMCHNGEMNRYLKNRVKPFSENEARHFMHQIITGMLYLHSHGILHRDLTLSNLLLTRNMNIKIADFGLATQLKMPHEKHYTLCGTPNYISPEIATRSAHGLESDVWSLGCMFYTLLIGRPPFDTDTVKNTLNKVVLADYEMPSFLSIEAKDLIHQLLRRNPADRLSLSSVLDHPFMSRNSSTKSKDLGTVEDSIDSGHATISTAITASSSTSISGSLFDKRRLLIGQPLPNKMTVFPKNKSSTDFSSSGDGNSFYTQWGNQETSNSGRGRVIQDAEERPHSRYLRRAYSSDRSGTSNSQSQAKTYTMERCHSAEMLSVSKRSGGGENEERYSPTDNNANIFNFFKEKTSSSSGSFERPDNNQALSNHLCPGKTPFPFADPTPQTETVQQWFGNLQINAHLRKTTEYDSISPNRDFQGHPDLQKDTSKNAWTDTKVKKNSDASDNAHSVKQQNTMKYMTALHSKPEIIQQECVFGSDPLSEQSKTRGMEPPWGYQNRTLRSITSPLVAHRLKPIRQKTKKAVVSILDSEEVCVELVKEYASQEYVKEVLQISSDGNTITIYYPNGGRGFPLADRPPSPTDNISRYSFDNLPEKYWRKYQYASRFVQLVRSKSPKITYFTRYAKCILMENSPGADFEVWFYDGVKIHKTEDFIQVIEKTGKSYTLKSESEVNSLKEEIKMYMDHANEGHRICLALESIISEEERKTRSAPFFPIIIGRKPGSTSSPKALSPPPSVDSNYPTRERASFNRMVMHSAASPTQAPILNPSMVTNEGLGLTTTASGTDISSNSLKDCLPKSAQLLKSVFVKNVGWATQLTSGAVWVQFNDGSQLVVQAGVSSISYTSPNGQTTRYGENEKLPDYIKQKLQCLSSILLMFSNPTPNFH
Excerpt: as §1

BRAF = BRAF (Homo sapiens (Human), UniProt P15056)
Excerpt: as §1

MAP3K4 = MAP3K4 (Homo sapiens (Human), UniProt Q9Y6R4)
Excerpt: as §1

[1] = target: JAK2 (JH1domain-catalytic) (Homo sapiens (Human), UniProt O60674)
JAK2 (JH1domain-catalytic), sequence (O60674 849-1124): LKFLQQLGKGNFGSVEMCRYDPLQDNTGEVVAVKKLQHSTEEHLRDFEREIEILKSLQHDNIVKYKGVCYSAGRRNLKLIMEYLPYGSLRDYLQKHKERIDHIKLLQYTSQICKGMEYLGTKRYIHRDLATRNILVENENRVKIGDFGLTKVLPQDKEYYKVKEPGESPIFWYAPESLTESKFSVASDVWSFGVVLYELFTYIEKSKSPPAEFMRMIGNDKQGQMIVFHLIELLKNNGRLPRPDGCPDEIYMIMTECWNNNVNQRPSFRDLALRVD
Excerpt: as §1

VEGFR2 = VEGFR2 (Homo sapiens (Human), UniProt P35968)
Excerpt: as §1

ERBB4 = ERBB4 (Homo sapiens (Human), UniProt Q15303)
ERBB4, sequence (Q15303 26-1308): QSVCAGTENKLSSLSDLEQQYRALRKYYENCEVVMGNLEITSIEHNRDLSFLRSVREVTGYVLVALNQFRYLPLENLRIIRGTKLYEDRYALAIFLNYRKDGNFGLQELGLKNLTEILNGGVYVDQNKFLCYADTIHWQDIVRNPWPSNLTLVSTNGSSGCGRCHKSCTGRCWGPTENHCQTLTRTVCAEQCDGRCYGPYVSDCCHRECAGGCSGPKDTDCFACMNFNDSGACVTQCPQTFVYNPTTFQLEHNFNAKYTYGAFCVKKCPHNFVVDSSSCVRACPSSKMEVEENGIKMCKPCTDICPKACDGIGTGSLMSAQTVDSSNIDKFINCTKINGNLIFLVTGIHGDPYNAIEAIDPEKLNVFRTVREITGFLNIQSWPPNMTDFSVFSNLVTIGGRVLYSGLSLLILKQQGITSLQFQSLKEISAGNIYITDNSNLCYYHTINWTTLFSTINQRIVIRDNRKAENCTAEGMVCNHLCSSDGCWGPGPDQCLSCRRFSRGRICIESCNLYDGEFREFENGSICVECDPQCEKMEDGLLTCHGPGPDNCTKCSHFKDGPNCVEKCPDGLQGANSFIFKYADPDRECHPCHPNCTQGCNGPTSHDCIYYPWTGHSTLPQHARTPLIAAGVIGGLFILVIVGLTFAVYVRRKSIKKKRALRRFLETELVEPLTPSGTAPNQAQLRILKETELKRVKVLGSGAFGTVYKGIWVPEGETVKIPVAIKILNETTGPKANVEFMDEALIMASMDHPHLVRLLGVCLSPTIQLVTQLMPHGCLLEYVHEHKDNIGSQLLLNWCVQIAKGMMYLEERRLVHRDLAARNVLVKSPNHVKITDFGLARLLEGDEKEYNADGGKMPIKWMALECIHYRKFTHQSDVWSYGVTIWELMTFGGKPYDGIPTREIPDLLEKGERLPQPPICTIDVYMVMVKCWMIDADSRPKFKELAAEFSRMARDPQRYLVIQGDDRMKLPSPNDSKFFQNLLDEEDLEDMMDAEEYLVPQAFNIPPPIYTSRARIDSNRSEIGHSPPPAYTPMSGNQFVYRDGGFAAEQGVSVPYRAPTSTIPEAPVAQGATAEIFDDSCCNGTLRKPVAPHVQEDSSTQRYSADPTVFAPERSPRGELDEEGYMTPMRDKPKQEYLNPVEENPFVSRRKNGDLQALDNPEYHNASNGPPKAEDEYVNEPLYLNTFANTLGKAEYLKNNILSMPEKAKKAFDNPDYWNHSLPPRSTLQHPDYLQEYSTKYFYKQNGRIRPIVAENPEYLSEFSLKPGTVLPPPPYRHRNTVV
Excerpt: as §1

PIM2 = PIM2 (Homo sapiens (Human), UniProt Q9P1W9)
Excerpt: as §1

[2] = target: ABL1(E255K)-phosphorylated (Homo sapiens (Human), UniProt P00519, E255K)
Excerpt: as §1

TRKA = TRKA (Homo sapiens (Human), UniProt P04629)
Excerpt: as §1

YANK3 = YANK3 (Homo sapiens (Human), UniProt Q86UX6)
Excerpt: as §1

JNK2 = JNK2 (Homo sapiens (Human), UniProt P45984)
Excerpt: as §1

KIT (V559D, T670I) = KIT (V559D, T670I) (Homo sapiens (Human), UniProt P10721, T670I/V559D)
Excerpt: as §1

KIT (D816V) = KIT (D816V) (Homo sapiens (Human), UniProt P10721, D816V)
Excerpt: as §1

AKT1 = AKT1 (Homo sapiens (Human), UniProt P31749)
Excerpt: as §1

MKNK2 = MKNK2 (Homo sapiens (Human), UniProt Q9HBH9)
Excerpt: as §1

PLK1 = PLK1 (Homo sapiens (Human), UniProt P53350)
Excerpt: as §1

BTK = BTK (Homo sapiens (Human), UniProt Q06187)
Excerpt: as §1

IKK-beta = IKK-beta (Homo sapiens (Human), UniProt O14920)
Excerpt: as §1

MET = MET (Homo sapiens (Human), UniProt P08581)
Excerpt: as §1

## COc1cc2c(Oc3ccc(NC(=O)C4(C(=O)Nc5ccc(F)cc5)CC4)cc3F)ccnc2cc1OCCCCCC(=O)NO [Example 13, N1′-[3-fluoro-4-[[7-[6-(hydroxyamino)-6-oxohexyloxy]-6-methoxy-4-quinolyl]oxy]phenyl]-N1-(4-fluorophenyl)cyclopropane-1,1-dicarboxamide]
MEK2
  % Ctrl@1000 nM: 1.8 % Ctrl
MARK3
  % Ctrl@1000 nM: 73 % Ctrl
PIK3CG
  % Ctrl@1000 nM: 66 % Ctrl
PAK1
  % Ctrl@1000 nM: 66 % Ctrl
PAK2
  % Ctrl@1000 nM: 76 % Ctrl
AKT2
  % Ctrl@1000 nM: 100 % Ctrl
ERBB2
  % Ctrl@1000 nM: 15 % Ctrl
DYRK1B
  % Ctrl@1000 nM: 63 % Ctrl
TIE2
  % Ctrl@1000 nM: 0.55 % Ctrl
SRPK3
  % Ctrl@1000 nM: 76 % Ctrl
PCTK1
  % Ctrl@1000 nM: 100 % Ctrl
RET
  % Ctrl@1000 nM: 0 % Ctrl
SRC
  % Ctrl@1000 nM: 0.15 % Ctrl
MEK1
  % Ctrl@1000 nM: 0.95 % Ctrl
BRAF(V600E)
  % Ctrl@1000 nM: 88 % Ctrl
CDK11
  % Ctrl@1000 nM: 1.2 % Ctrl
ERK1
  % Ctrl@1000 nM: 94 % Ctrl
CSF1R
  % Ctrl@1000 nM: 0 % Ctrl
PLK4
  % Ctrl@1000 nM: 0.55 % Ctrl
BRAF
  % Ctrl@1000 nM: 87 % Ctrl
MAP3K4
  % Ctrl@1000 nM: 100 % Ctrl
[1]
  % Ctrl@1000 nM: 64 % Ctrl
VEGFR2
  % Ctrl@1000 nM: 1 % Ctrl
ERBB4
  % Ctrl@1000 nM: 17 % Ctrl
PIM2
  % Ctrl@1000 nM: 100 % Ctrl
[2]
  % Ctrl@1000 nM: 7.8 % Ctrl
TRKA
  % Ctrl@1000 nM: 0.5 % Ctrl
YANK3
  % Ctrl@1000 nM: 84 % Ctrl
JNK2
  % Ctrl@1000 nM: 62 % Ctrl
KIT (V559D, T670I)
  % Ctrl@1000 nM: 0.15 % Ctrl
KIT (D816V)
  % Ctrl@1000 nM: 2.2 % Ctrl
AKT1
  % Ctrl@1000 nM: 100 % Ctrl
MKNK2
  % Ctrl@1000 nM: 0.1 % Ctrl
PLK1
  % Ctrl@1000 nM: 100 % Ctrl
BTK
  % Ctrl@1000 nM: 2.6 % Ctrl
IKK-beta
  % Ctrl@1000 nM: 78 % Ctrl
MET
  % Ctrl@1000 nM: 7.7 % Ctrl
